Assay results from PMC10746280, “Bacterial efflux pump modulators prevent bacterial growth in macrophages and under broth conditions that mimic the host environment” (mBio, 2023).
pIC50: −log10 of the molar value. Where “and” joins values, the source holds several entries; their conditions need not be identical. Equal entries are not always repeated.

How the values were obtained:
[1] = test system: S. Typhimurium SL1344 (sifB::gfp) in RAW 264.7 macrophages; assay: SAFIRE macrophage assay: intracellular bacterial load (GFP signal within macrophages); format: cell-based, Salmonella enterica serotype Typhimurium
Description: (§1) In SAFIRE, we used MATLAB software to count the number of macrophages that remain adherent and retain the red fluorescence of MitoTracker, an indicator of voltage across the mitochondrial inner membrane. MATLAB then calculates the signal from bacteria (green fluorescent protein [GFP]) that overlaps with macrophages, as defined by MitoTracker, to estimate bacterial load. […] For example, we observed that the 6-trifluoropyrimidin-2-yl group on the right-hand side of EPM35 is apparently toxic to macrophages. Non-toxic analogs that reduced bacterial load by at least 60% at 5 µM and 25 µM in SAFIRE, as compared with DMSO, progressed and were evaluated in SAFIRE across eight or more concentrations, ranging from 0.001 µM to 50 µM (n = 2). […] Each of the top 13 analogs had at least an eightfold increase in potency and were not toxic for macrophages at 50 µM in the SAFIRE assay (Fig. 1C).
(§2) As previously described ([18]), RAW 264.7 macrophages (between passages 1 and 6) were grown in complete Dulbecco’s modified Eagle’s medium (DMEM) to approximately 70% to 90% confluence, scraped, washed, resuspended, diluted to 5 × 10^4 in 100 µL, and seeded in black, 96-well, glass-bottomed plates (Brooks Life Sciences catalog number MGB096-1-2-LG-L) at 37°C with 5% CO2. Twenty-four hours later, bacteria grown overnight in LB were diluted into 50 µL phosphate buffered saline (PBS) and added to a final concentration of 1 × 10^7 S. Typhimurium SL1344 (sifB::gfp) per milliliter ([78]) for an approximate multiplicity of infection of 30 bacteria per macrophage cell. Forty-five minutes after bacterial addition, gentamicin (Sigma catalog number G1264) was added to a final concentration of 40 µg/mL to inhibit the growth of remaining extracellular bacteria. Two hours after infection, gentamicin-containing medium was removed and replaced with 200 µL fresh DMEM with compound or DMSO (Sigma catalog number 276855) to the stated final concentrations. At 17.5 h after infection, PBS containing MitoTracker Red CMXRos (Life Technologies catalog number M7512), a vital dye for mitochondrial electric potential, was added to a final concentration of 100 nM. At 18 h after infection, 16% paraformaldehyde was added to a final concentration of 4% and incubated at room temperature for 15 min. Cells were washed twice with PBS and stained for 20 min with 1 µM 4′,6-diamidino-2-phenylindole (DAPI), a vital dye for double-stranded DNA, and stored in 90% glycerol in PBS until imaging. Samples were imaged in six fields of view per well using a semiautomated Yokogawa CellVoyager CV1000 confocal scanner system with a 20×, 0.75-numerical aperture (NA) objective. A MATLAB algorithm calculated bacterial accumulation (GFP fluorescence) within macrophages, as defined by DAPI and MitoTracker Red. GFP^+ macrophage area was defined as the number of GFP-positive pixels per macrophage divided by the total number of pixels per macrophage, averaged across all macrophages in the field ([34]).

RAW 264.7 macrophages = assay: SAFIRE macrophage assay: host toxicity (adherent macrophage count, morphology); format: cell-based
Description: as §1, §2

[2] = 5 uM, 'Toxic' given instead of a score
[3] = 25 uM, 'Toxic' given instead of a score
[4] = 5 uM compound, n=1, DMSO solvent control = 98, rifampicin 2 μg/mL = 65
[5] = 25 uM compound, n=1, DMSO solvent control = 98, rifampicin 2 μg/mL = 65
[6] = 5 uM compound, n=1, DMSO solvent control = 100
[7] = 25 uM compound, n=1, DMSO solvent control = 100

| SMILES | 5 uM Avg Antibacterial Score [1, 2] | 25 uM Avg Antibacterial Score [1, 3] | 5 uM Avg Cell # Score (RAW 264.7 macrophages; 5 uM) | 25 uM Avg Cell # Score (RAW 264.7 macrophages; 25 uM) | toxicity to infected macrophages in SAFIRE (RAW 264.7 macrophages; 16 h after treatment) | 5 uM Avg Antibacterial Score [1, 4] | 25 uM Avg Antibacterial Score [1, 5] | 5 uM Avg Cell # Score (RAW 264.7 macrophages; [6]) | 25 uM Avg Cell # Score (RAW 264.7 macrophages; [7]) | pIC50 ([1]; Salmonella enterica, TYPHIMURIUM, RAW264.7, read-out: SAFIRE IC50) |
| --- | --- | --- | --- | --- | --- | --- | --- | --- | --- | --- |
| O=C1CN(CC(O)COc2ccc(Cl)c(Cl)c2)CCN1 (stereo not drawn) [CU184] | 103 | 102 | 91 | 97 | – | – | – | – | – | – |
| CNC1CCN(C[C@H](O)COc2ccc(Cl)c(Cl)c2)C1 (stereo partly drawn) [CU162] | 68 | 46 | 124 | 126 | – | – | – | – | – | – |
| CC(C)C(=O)NC1CCN(CC(O)COc2ccc(Cl)c(Cl)c2)C1 (stereo not drawn) [CU069] | 95 | 52 | 96 | 94 | – | – | – | – | – | – |
| OC(COc1ccccc1F)CN1CCC(Nc2nccc(C(F)(F)F)n2)C1 (stereo not drawn) [CU139] | 99 | 28 | 95 | 73 | – | – | – | – | – | – |
| OC(COc1ccc(-c2ccccc2)cc1)CN1CCC(Nc2nccc(C(F)(F)F)n2)CC1 (stereo not drawn) [CU077] | 11 | Toxic | 35 | 114 | – | – | – | – | – | – |
| OC(COc1ccc(Cl)c(Cl)c1)CN1CC2CC(C1)O2 (stereo not drawn) [CU223] | 104 | 103 | 106 | 100 | – | – | – | – | – | – |
| COC(=O)c1ccc(OCC(O)CN2CCC(Nc3nccc(C(F)(F)F)n3)C2)cc1 (stereo not drawn) [CU091] | 97 | 9.52 | 89 | 95 | – | – | – | – | – | – |
| OC(COc1c(Cl)cccc1Cl)CN1CCC(Nc2nccc(C(F)(F)F)n2)CC1 (stereo not drawn) [CU109] | 56 | Toxic | 74 | 44 | – | – | – | – | – | – |
| O=C(O)C1CCN(CC(O)COc2ccc(Cl)c(Cl)c2)CC1 (stereo not drawn) [CU073] | 102 | 101 | 100 | 140 | – | – | – | – | – | – |
| c1ccc2c(CN3CCNCC3)cccc2c1 [CU207] | 98 | 59 | 113 | 121 | – | – | – | – | – | – |
| OC(COc1ccc(Cl)c(Cl)c1)CN1CCC(N2CCOCC2)C1 (stereo not drawn) [CU029] | 105 | 63 | 75 | 146 | – | – | – | – | – | – |
| NC1CCN(CC(O)COc2ccc(Cl)c(Cl)c2)CC1 (stereo not drawn) [CU173] | 20 | 30 | 98 | 43 | toxic | – | – | – | – | – |
| OC(COc1ccc(F)c(F)c1)CN1CCC(Nc2nccc(C(F)(F)F)n2)CC1 (stereo not drawn) [CU169] | 84 | 6 | 106 | 91 | – | – | – | – | – | – |
| OC(COc1c(Cl)cccc1Cl)CN1CCC(Nc2nccc(C(F)(F)F)n2)C1 (stereo not drawn) [CU115] | 99 | Toxic | 93 | 59 | – | – | – | – | – | – |
| COC(=O)c1ccc(OCC(O)CN2CCC(Nc3nccc(C(F)(F)F)n3)CC2)cc1 (stereo not drawn) [CU075] | 68 | Toxic | 86 | 56 | – | – | – | – | – | – |
| COC(COc1ccc(Cl)c(Cl)c1)CN1CCC(N)CC1 (stereo not drawn) [CU242] | – | – | – | – | – | 28 | 9 | 123 | 109 | – |
| N[C@H]1CC[C@H](N2CC(COc3cc(Cl)cc(Cl)c3)OC2=O)CC1 (stereo partly drawn) [CU219] | 93 | 22 | 137 | 123 | – | – | – | – | – | – |
| CN(C)C1CCN(CC(O)COc2ccc(Cl)c(Cl)c2)C1 (stereo not drawn) [CU142] | 77 | 47 | 104 | 113 | – | – | – | – | – | – |

| SMILES | 5 uM Avg Antibacterial Score [1, 2] | 25 uM Avg Antibacterial Score [1, 3] | 5 uM Avg Cell # Score (RAW 264.7 macrophages; 5 uM) | 25 uM Avg Cell # Score (RAW 264.7 macrophages; 25 uM) | toxicity to infected macrophages in SAFIRE (RAW 264.7 macrophages; 16 h after treatment) | 5 uM Avg Antibacterial Score [1, 4] | 25 uM Avg Antibacterial Score [1, 5] | 5 uM Avg Cell # Score (RAW 264.7 macrophages; [6]) | 25 uM Avg Cell # Score (RAW 264.7 macrophages; [7]) | pIC50 ([1]; Salmonella enterica, TYPHIMURIUM, RAW264.7, read-out: SAFIRE IC50) |
| --- | --- | --- | --- | --- | --- | --- | --- | --- | --- | --- |
| N[C@H]1CC[C@H](NCC(O)COc2ccc(Cl)c(Cl)c2)CC1 (stereo partly drawn) [CU246] | – | – | – | – | – | 72 | 19 | 117 | 106 | – |
| OC(CNC1(c2ccccc2)CC1)COc1ccc(Cl)c(Cl)c1 (stereo not drawn) [CU132] | 102 | Toxic | 82 | 39 | – | – | – | – | – | – |
| NC1CCN(CC(O)COc2ccc(F)c(F)c2)C1 (stereo not drawn) [CU172] | 70 | 57 | 108 | 103 | – | – | – | – | – | – |
| CN(C)CC1COCCN1CC(O)COc1ccc(Cl)c(Cl)c1 (stereo not drawn) [CU221] | 106 | 84 | 104 | 106 | – | – | – | – | – | – |
| OC(COc1ccc(Cl)cc1Cl)CN1CCC(Nc2ncccn2)CC1 (stereo not drawn) [CU047] | 107 | 26 | 72 | 141 | – | – | – | – | – | – |
| OC(COc1ccccc1Cl)CN1CCC(NC2CC2)C1 (stereo not drawn) [CU141] | 81 | 79 | 116 | 137 | – | – | – | – | – | – |
| OC(COc1ccc(Cl)c(Cl)c1)CN1CCC2(CCOCC2)C1 (stereo not drawn) [CU129] | 95 | 39 | 100 | 88 | – | – | – | – | – | – |
| NCCC1CCN(CC(O)COc2ccc(Cl)c(Cl)c2)C1 (stereo not drawn) [CU251] | – | – | – | – | – | 100 | 103 | 108 | 101 | – |
| OC(CNC1CCNCC1)COc1ccccc1Cl (stereo not drawn) [CU200] | 92 | 65 | 99 | 108 | – | – | – | – | – | – |
| OC(CNCCNc1nccc(C(F)(F)F)n1)COc1ccc(Cl)c(Cl)c1 (stereo not drawn) [CU070] | Toxic | Toxic | 49 | 65 | – | – | – | – | – | – |
| OC(COc1cc(Cl)cc(Cl)c1)CN1CCCCC1 (stereo not drawn) [CU247] | – | – | – | – | – | 93 | 50 | 118 | 111 | – |
| OC(COc1ccc(Cl)cc1)CN1CCC(Nc2nccs2)CC1 (stereo not drawn) [CU053] | 101 | 42 | 127 | 140 | – | – | – | – | – | – |
| O=C1OC(COc2ccc(Cl)c(Cl)c2)CN1C1CCNC1 (stereo not drawn) [CU146] | 89 | 51 | 95 | 117 | – | – | – | – | – | – |
| CCc1ccc(OCC(O)CN2CCC(Nc3nccc(C(F)(F)F)n3)CC2)cc1 (stereo not drawn) [CU074] | 10 | Toxic | 71 | 114 | – | – | – | – | – | – |
| N[C@H]1CC[C@@H](NCC(O)COc2ccc(Cl)c(Cl)c2)CC1 (stereo partly drawn) [CU245] | – | – | – | – | – | 66 | 16 | 122 | 103 | – |
| NC1CCN(CC(O)COc2c(Cl)cccc2Cl)CC1 (stereo not drawn) [CU192] | 52 | 30 | 96 | 92 | – | – | – | – | – | 8.16 |
| N[C@@H]1CCN(CC(O)COc2cc(Cl)cc(Cl)c2)C1 (stereo partly drawn) [CU203] | 33 | 9 | 98 | 106 | – | – | – | – | – | – |
| NC1CN(CC(O)COc2ccc(Cl)c(Cl)c2)C1 (stereo not drawn) [CU150] | – | – | 112 and 118 | 112 and 143 | – | – | – | – | – | – |
